# What was measured:
# [1] = system: TLR9+CXCL4-activated human plasmacytoid dendritic cells (pDCs); assay: IFN-α secretion (ELISA) by purified pDCs activated with CpG-B (TLR9 ligand) + CXCL4; type: cell-based; settings: CXCL4 present
# Procedure: (§1) PBMCs were prepared using Ficoll-Paque density gradient from fresh blood under internal Institutional Review Board-approved protocols. pDCs were isolated as previously described (Guiducci et al. 2008) using either using negative depletion (Miltenyi Biotech) or following cell sorting using a […]. All BDCA4+ cells also express BDCA2 (results not shown). As a result, pure pDCs were obtained and no markers for neutrophils (CD66) or myeloid cells were found by PCR.
# (§2) For the TLR9 activation in pDCs, the cells were incubated in complete media alone, or CpG-B 1018 (0.25 or 1 μM), or CpG-C 274 at similar concentrations. In some assays, cells were also incubated with 10 μg/ml CXCL4 (R&D systems).
# (§3) Supernatant from B cells and pDCs 24 hour culture was used for quantification of secreted IFNα with the use of an enzyme-linked immunosorbent assay (ELISA) (Mabtech) performed according to the manufacturer's protocol.
# (§4) Data were analyzed using a Mann-Whitney U-test (t test using non parametric criteria for independent samples). Comparisons between PBMC and pDCs-depleted PBMC were tested using a parametric paired t-test. All analyses were performed using Prism software (GraphPad Software). Differences were considered significant at a P level less than 0.05 with *p<0.05; **p<0.01; ***p<0.001.
# [2] = system: TLR9-activated human plasmacytoid dendritic cells (pDCs); assay: IFN-α secretion (ELISA) by purified pDCs activated with TLR9 ligand alone (CpG1018 / CpG C274); type: cell-based; settings: without CXCL4; various dilutions
# Procedure: as §1, §2, §3, §4
smiles,measurement,setting,value
"CC(=O)N[C@H]1[C@H]([C@H](O)[C@H](O)CO)O[C@@](O)(C(=O)O)C[C@@H]1O [N-Acetylneuraminic acid, 5-(acetylamino)-3,5-dideoxy-D-glycero-α-D-galacto-non-2-ulopyranosonic acid]","inhibitory effect on TLR9-activated pDCs, IFN-α production relative to CpG-CXCL4",[1],significant inhibitory effect
same,"inhibitory effect on TLR9-activated pDCs, IFN-α production relative to the TLR9 agonist CpG C274",[2],significant inhibitory effect
